Target: Aldo-keto reductase family 1 member B1 (Rattus norvegicus) (UniProt P07943)
Test: Inhibition of Rattus norvegicus albino (rat) kidney aldose reductase using DL-glyceraldehyde as substrate assessed as decrease in NADPH concentRattus norvegicus (rat) ion at 10^-4 M after 5 min by spectrophotometrically

| inhibition | Structure (SMILES) |
| --- | --- |
| 0% | O=C(CCc1cc(-c2ccc(Cl)cc2)n(-c2ccc(Cl)nn2)n1)N1CCCCC1 |
| 0.98% | Cc1nn(-c2ccc(=O)n(CC(=O)O)n2)c(C)c1Cl |
| 0% | Cc1cc(C)n(-c2ccc(=O)n(CC(=O)NCCc3ccccc3)n2)n1 |
| 0% | CCOC(=O)Cn1nc(-n2nc(-c3ccccc3)cc2C)ccc1=O |
| 1.85% | Cc1cc(C)n(-c2ccc(=O)n(CC(=O)N3CCN(c4ccc(F)cc4)CC3)n2)n1 |
| 0% | CCOC(=O)Cn1nc(-n2nc(C)c(Cl)c2C)ccc1=O |
| 0% | Cc1nn(-c2ccc(=O)n(CC(=O)Nc3ccc(F)cc3)n2)c(C)c1Cl |
| 0% | Cc1cc(C)n(-c2ccc(=O)n(CC(=O)Nc3cccnc3)n2)n1 |
| 0.76% | Cc1cc(-c2ccccc2)nn1-c1ccc(=O)n(CC(=O)O)n1 |
| 0% | Cc1nn(-c2ccc(=O)n(CC(=O)N3CCCCC3)n2)c(C)c1Cl |
| 0% | O=C(CCc1cc(-c2ccc(Cl)cc2)n(-c2ccc(Cl)nn2)n1)Nc1ccc(Cl)cc1 |
| 3.37% | Cc1cc(-c2ccccc2)nn1-c1ccc(=O)n(CC(=O)Nc2cccnc2)n1 |
| 0% | O=C(CCc1cc(-c2ccc(Cl)cc2)n(-c2ccc(Cl)nn2)n1)NCCc1ccccc1 |
| 0% | Cc1nn(-c2ccc(=O)n(CC(=O)NCCc3ccccc3)n2)c(C)c1Cl |
| 0% | Cc1cc(C)n(-c2ccc(=O)n(CC(=O)N3CCN(c4ccccc4F)CC3)n2)n1 |
| 0% | Cc1cc(C)n(-c2ccc(=O)n(CC(=O)Nc3ccc(Cl)cc3)n2)n1 |
| 0% | Cc1cc(-c2ccccc2)nn1-c1ccc(=O)n(CC(=O)NCCc2ccccc2)n1 |
| 0% | CCOC(=O)Cn1nc(-n2nc(C)cc2C)ccc1=O |
| 0% | Cc1cc(-c2ccccc2)nn1-c1ccc(=O)n(CC(=O)Nc2ccc(Cl)cc2)n1 |
| 0.76% | O=C(O)CCc1cc(-c2ccc(Cl)cc2)n(-c2ccc(Cl)nn2)n1 |
| 0% | Cc1cc(-c2ccccc2)nn1-c1ccc(=O)n(CC(=O)N2CCN(c3ccc(F)cc3)CC2)n1 |
| 1.85% | Cc1cc(-c2ccccc2)nn1-c1ccc(=O)n(CC(=O)N2CCN(c3ccccc3F)CC2)n1 |
| 7.73% | Cc1cc(C)n(-c2ccc(=O)n(CC(=O)O)n2)n1 |
| 0% | Cc1nn(-c2ccc(=O)n(CC(=O)Nc3ccc(Cl)cc3)n2)c(C)c1Cl |

Reference: ChEMBL document CHEMBL3044976, “Screening and evaluation of rat kidney aldose reductase inhibitory activity of some pyridazine derivatives” (Med Chem Res, 2006)
